Assay results: patent US10322995B2, “Substituted cyano cycloalkyl penta-2,4-dienes, cyano cycloalkyl pent-2-en-4-ynes, cyano heterocyclyl penta-2,4-dienes and cyano heterocyclyl pent-2-en-4-ynes as active substances against abiotic plant stress” (BAYER CROPSCIENCE AKTIENGESELLSCHAFT, priority 2014, dated 2019)

What was measured:
Zea mays (ZEAMX) = assay: In vivo analyses Part A: drought stress, visual damage scoring, efficacy EF (ZEAMX); details: spray application 25 g/ha, efficacy = reduction in damage intensity
Method: Seeds of monocotyledonous and dicotyledonous crop plants were sown in sandy loam in wood-fibre pots, covered with soil or sand and cultivated in a greenhouse under good growth conditions. The test plants were treated at the early leaf stage (BBCH10-BBCH13). To assure uniform water supply before commencement of stress, the potted plants were supplied with water by dam irrigation prior to substance application. The inventive compounds, formulated in the form of wettable powders (WP), were sprayed onto the green parts of the plants as an aqueous suspension at an equivalent water application rate of 600 I/ha with addition of 0.2% wetting agent (e.g. agrotin). Substance application was followed immediately by stress treatment of the plants. For this purpose, the pots were transferred in plastic inserts in order to prevent them from subsequently drying out too quickly. Drought stress was induced by gradual drying out under the following conditions: “Day”: 14 hours with illumination at 26° C. “Night”: 10 hours without illumination at 18° C. The duration of the respective stress phases was guided mainly by the condition of the stressed control plants. […] Once this juncture was reached, the intensities of damage were scored visually in comparison to untreated, unstressed controls of the same age. The damage intensity was at first assessed in percent. […]

Brassica napus (BRSNS) = assay: In vivo analyses Part A: drought stress, visual damage scoring, efficacy EF (BRSNS); details: spray application 250 g/ha, efficacy = reduction in damage intensity
Method: (§1) Seeds of monocotyledonous and dicotyledonous crop plants were sown in sandy loam in wood-fibre pots, covered with soil or sand and cultivated in a greenhouse under good growth conditions. The test plants were treated at the early leaf stage (BBCH10-BBCH13). To assure uniform water supply before commencement of stress, the potted plants were supplied with water by dam irrigation prior to substance application. The inventive compounds, formulated in the form of wettable powders (WP), were sprayed onto the green parts of the plants as an aqueous suspension at an equivalent water application rate of 600 I/ha with addition of 0.2% wetting agent (e.g. agrotin). Substance application was followed immediately by stress treatment of the plants. For this purpose, the pots were transferred in plastic inserts in order to prevent them from subsequently drying out too quickly. Drought stress was induced by gradual drying out under the following conditions: “Day”: 14 hours with illumination at 26° C. “Night”: 10 hours without illumination at 18° C. The duration of the respective stress phases was guided mainly by the condition of the stressed control plants. It was ended (by re-irrigating and transfer to a greenhouse with good growth conditions) as soon as irreversible damage was observed on the stressed control plants. The end of the stress phase was followed by an about 4-7-day recovery phase, during which the plants were once again kept under good growth conditions in a greenhouse. The duration of the recovery phase was guided mainly by when the trial plants had attained a state which enabled visual scoring of potential effects, and was therefore variable. Once this juncture was reached, the intensities of damage were scored visually in comparison to untreated, unstressed controls of the same age. The damage intensity was at first assessed in percent. […]

[1] = tested on: Triticum aestivum (TRZAS); assay: In vivo analyses Part A: drought stress, visual damage scoring, efficacy EF (TRZAS); details: spray application 25 g/ha, efficacy = reduction in damage intensity
Method: as §1

CCOC(=O)/C=C(/C)C#CC(O)(c1ccccc1)C1(C#N)CC1 (stereo not drawn) [I.1-236, Ethyl (2Z)-6-(1-cyanocyclopropyl)-6-hydroxy-3-methyl-6-phenylhex-2-en-4-ynoate]
>5%: EF [%] (ZEAMX) (Zea mays (ZEAMX)) | EF [%] (BRSNS) (Brassica napus (BRSNS)) | EF [%] (TRZAS) [1]
